The values that follow are results of earlier work, collected in paper PMC3066546, “Development of modified nucleosides that have supremely high anti-HIV activity and low toxicity and prevent the emergence of resistant HIV mutants” (Proceedings of the Japan Academy. Series B, Physical and …, 2011).

Where two headings read alike, the source gives them in different places.

The conditions of data set [1]: CEM cells, MT4 cells, MAGI-CCR5 cells.
In a further data set the test system is HIV-1wild. More on the design: method as in PMID 18487070. As to conditions: Table 7; read-out: Anti-HIV activity (MAGI assay, µg) HIV-1wild.
The subject of the next data set is HIV-1MDR. Further details: method as in PMID 18487070. The note with it: Table 7; read-out: Anti-HIV activity (MAGI assay, µg) HIV-1MDR.
A further data set relates to HIV-1M184V. Further details: method as in PMID 18487070. The note with it: Table 7; read-out: Anti-HIV activity (MAGI assay, µg) HIV-1M184V.
Data set [2] concerns multi-drug resistant HIV mutant.
In the next data set the test system is HIV-1LAI. The note with it: MTT assay, MT-4 cells.
In another data set the test system is RT of the M184V mutant. More on the design: method as in PMID 15456247. The note with it: 4′EddCTP compared with RT of wild-type HIV.
The test system of the next data set is HXB2 (wild type HIV). More on the design: method as in PMID 11087576, PMID 11577734, PMID 15200030. As to conditions: MAGI assay.
The next data set deals with KH65R drug-resistant HIV. More on the design: method as in PMID 11087576, PMID 11577734, PMID 15200030. As to conditions: MAGI assay.
For another data set, the system named is L74V drug-resistant HIV. Further details: method as in PMID 11087576, PMID 11577734, PMID 15200030. The note with it: MAGI assay.
Data set [3] deals with 41/215 drug-resistant HIV. More on the design: method as in PMID 11087576, PMID 11577734, PMID 15200030. The note with it: MAGI assay.
Another data set concerns M184V drug-resistant HIV. Further details: method as in PMID 11087576, PMID 11577734, PMID 15200030. As to conditions: MAGI assay.
The next data set has as its system M184I drug-resistant HIV. Further details: method as in PMID 11087576, PMID 11577734, PMID 15200030. As to conditions: MAGI assay.
Data set [4] has as its system 41/69/ 125/SG drug-resistant HIV. Further details: method as in PMID 11087576, PMID 11577734, PMID 15200030. The note with it: MAGI assay.
Data set [5] deals with MDR (multidrug-resistant HIV). As to conditions: MAGI assay.
Data set [6] deals with Y181C (non-nucleoside reverse transcriptase inhibitor-resistant). Further details: method as in PMID 11087576, PMID 11577734, PMID 15200030. The note with it: MAGI assay.
In the next data set the test system is HIV-1 Wild-type. Further details: method as in PMID 563233, PMID 17548498, PMID 18487070. As to conditions: Table 6.
In data set [7] the test system is HIVs isolated from seven heavily drug-experienced patients. More on the design: method as in PMID 11302824, PMID 12455229, PMID 15457679. The note with it: seven heavily drug-experienced AIDS patients, as efficiently as against wild-type HIV.
The conditions of data set [8]: Table 6.
In another data set the test system is ICR mice. The note with it: for Mortality (%): six-week-old ICR male mice.
The test system of a further data set is adenosine deaminase. As to conditions: 4′EdA to 4′EdI, 4′Ed2AA to 4′EdG.
The next data set relates to RT of wild-type HIV. Further details: method as in PMID 15456247. As to conditions: compared with AZTTP.
Data set [9] concerns HIV. More on the design: method as in PMID 7764216. The note with it: Table 1; for EC50: anti-HIV.
The subject of the next data set is HIV-1 M184V. Further details: method as in PMID 563233, PMID 17548498, PMID 18487070. The note with it: Table 6.
For data set [10], the target named is human mitochondrion DNA polymerase (DNA polymerase γ). More on the design: method as in PMID 17548498, PMID 18487070. The note with it: read-out: EC50 to inhibit the incorporation of dATP.
The next data set concerns the target DNA polymerase α. The note with it: read-out: EC50 against DNA polymerase α.
For a further data set, the target named is DNA polymerase β. The note with it: read-out: EC50 against DNA polymerase β.
For data set [11], the system named is HIV. More on the design: method as in PMID 15456247.
Details of data set [12]: method as in PMID 563233, PMID 17548498, PMID 18487070. As to conditions: acidic conditions of gastric juices (pH 1.06), 24 ℃.
The conditions of data set [13]: cytotoxic concentration, Table 1.

For the molecule “3′-azido-3′-deoxythymidine-5′-O-phosphate [AZTTP, reference compound]”, the “intracellular half-life (T1/2)” value in data set [1] is 3 h.

Regarding `C#C[C@@]1(CO)C=C[C@H](n2cc(C)c(=O)[nH]c2=O)O1` [4′Ed4T, 4′-C-ethynyl-2′,3′-didehydro-3′-deoxythymidine], the values for the EC50 in the data set with HIV-1wild, with HIV-1MDR and with HIV-1M184V were 1500 nM, 1100 nM and 17000 nM, respectively. The “potency against wild-type HIV compared with d4T” value in the data set with wild-type HIV was “more potent”. In addition, in data set [2], the “potency against multi-drug resistant HIV mutant compared with d4T” value is reported as “more potent”. In the data set with M184V-mutant, the “potency against M184V-mutant compared with d4T” value was “a little less potent”.

Regarding `C#C[C@]1(CO)O[C@@H](n2cc(F)c(N)nc2=O)C[C@@H]1O` [4′-C-ethynyl-2′-deoxy-5-fluorocytidine], the EC50 with HIV-1LAI (Table 2) was 30 nM. The CC50 in the data set with MT-4 cells (Table 2) was more than 100000 nM. Also, in the data set with other cells, the “toxicity with other cells” value was “toxic”.

Take `C#CC1(COP(=O)(O)OP(=O)(O)OP(=O)(O)O)CCC(n2ccc(N)nc2=O)O1` (single isomer, unassigned) [L-isomer of 4′EddCTP]: the “activity against RT of the M184V mutant” value with RT of the M184V mutant is reported as “not active”.

Turning to `C#C[C@]1(CO)O[C@@H](n2cnc3c(N)nc(N)nc32)C[C@@H]1O` [4′Ed2AA, 2′-deoxy-4′-C-ethynyl-2-aminoadenosine], the EC50 in the data set with HIV-1LAI (Table 3) was 0.3 nM; in the data set on HXB2 (wild type HIV) it was 1.4 nM; in the data set on KH65R drug-resistant HIV, 0.35 nM; in the data set with L74V drug-resistant HIV it was 0.7 nM; in [3], 1.7 nM; in the data set with M184V drug-resistant HIV, 5.9 nM. Besides, the EC50 is 2.7 nM in the data set on M184I drug-resistant HIV; 4.1 nM in [4]; 1 nM in [5]; 0.8 nM in [6]; 0.34 nM in the data set on HIV-1 Wild-type. Moreover, the “potency against HIVs isolated from patients” value in data set [7] is “highly potent”. Besides, the CC50 with MT-4 cells (Table 3) was 820 nM; in the data set with Hela cells (Table 4, Hela cells), more than 200000 nM; in data set [8] it was 900 nM. The “Mortality (%)” value in the data set with ICR mice (intraveneous administration, 1 mg/Kg) is listed as 0%; with ICR mice (intraveneous administration, 3 mg/Kg) it was 0%; with ICR mice (intraveneous administration, 10 mg/Kg), 100%; with ICR mice (intraveneous administration, 100 mg/Kg), 100%; in the data set on ICR mice (oral administration, 1 mg/Kg), 0%; in the data set with ICR mice (oral administration, 3 mg/Kg) it was 100%. For the same molecule, the “Mortality (%)” value is given as 100% in the data set with ICR mice (oral administration, 10 mg/Kg) and 100% in the data set on ICR mice (oral administration, 100 mg/Kg). In addition, the “survival days of mice after administration” value with ICR mice (intraveneous, 10 mg/Kg) was 2 days; in the data set on ICR mice (intraveneous, 100 mg/Kg), 1 days; in the data set on ICR mice (oral, 3 mg/Kg) it was 2 days; in the data set with ICR mice (oral, 10 mg/Kg), 2 days; in the data set on ICR mice (oral, 100 mg/Kg) it was 1 days. The “conversion by adenosine deaminase in mice” value with adenosine deaminase is recorded as “easily converted”.

With `C#CC1(COP(=O)(O)OP(=O)(O)OP(=O)(O)O)CCC(n2ccc(N)nc2=O)O1` (centres unmarked) [4′EddCTP], the “activity against the RT of wild-type HIV” value with RT of wild-type HIV is “more active”. Also, the “activity against RT of the M184V mutant” value in the data set on RT of the M184V mutant is reported as “much less active”.

Consider `Cc1cn([C@H]2C[C@H](N=[N+]=[N-])[C@@H](CO)O2)c(=O)[nH]c1=O` [AZT, 3′-azido-3′-deoxythymidine, reference compound], for which the EC50 in the data set with HIV [9] was 1 nM; in the data set with HIV-1LAI (Table 2), 3.2 nM; in the data set on HIV-1LAI (Table 3), 3.2 nM; in the data set on HXB2 (wild type HIV) it was 22 nM; in the data set with KH65R drug-resistant HIV it was 20 nM; in the data set on L74V drug-resistant HIV, 20 nM. Also, the EC50 in [3] was 300 nM; with M184V drug-resistant HIV it was 10 nM; with M184I drug-resistant HIV, 17 nM; in [4], 1600 nM; in data set [5], 15300 nM; in [6], 14 nM. Further, the EC50 in the data set on HIV-1 Wild-type was 3.2 nM; in the data set on HIV-1 M184V, 16 nM; in the data set on HIV-1wild, 170 nM; in the data set on HIV-1MDR it was 74300 nM; with HIV-1M184V, 130 nM. The CC50 in the data set with MT-4 cells is 29400 nM; with Hela cells, more than 100000 nM.

For the molecule `C#C[C@]1(COP(=O)(O)OP(=O)(O)OP(=O)(O)O)O[C@@H](n2cnc3c(N)nc(F)nc32)C[C@@H]1O` [4′Ed2FATP, 2′-deoxy-4′-C-ethynyl-2-fluoroadenosine-5-O-triphosphate], the EC50 in data set [10] is 10000 nM; at DNA polymerase α, more than 200000 nM; on DNA polymerase β it was more than 200000 nM. Moreover, the “intracellular half-life (T1/2)” value in data set [1] was approximately 18 h.

Turning to `C#C[C@@]1(CO)CC[C@H](n2ccc(N)nc2=O)O1` [4′EddC, 4′-C-ethynyl-2′,3′-dideoxycytidine], the “activity against HIV in cellular systems” value with HIV [11] is “inactive”.

In the case of `Nc1ncnc2c1ncn2[C@H]1CC[C@@H](CO)O1` [ddA, 2′,3′-dideoxyadenosine, reference compound], in the data set with HIV [9], the “SI (CC50/EC50)” value is reported as more than 11 and the EC50 was 47000 nM. Also, the “time to complete decomposition” value in data set [12] is 5 min. Also, the CC50 in [13] is more than 500000 nM.

For the molecule `Nc1ncnc2c1ncn2[C@H]1CC[C@@H](CO[P@@](=O)(O)O[P@](=O)(O)OP(=O)(O)O)O1` [ddATP, 2′,3′-dideoxyadenosine-5-O-triphosphate, reference compound], in data set [10], the EC50 is 200 nM.
